Test results reported in ChEMBL document CHEMBL1201862, “PubChem BioAssay data set” (2004).
Calls of active or inactive are those of the source. Where a SMILES comes first, the peptide text is derived from it. [ ]: non-standard residue; d: D form. The star is where a group is joined. Ac5c = NC1(C(=O)O)CCCC1; Cbz = O=C(OCc1ccccc1)*

Tests used:
Nonstructural protein 1 = Nonstructural protein 1 (Influenza A virus, UniProt Q194T2); format: functional, Influenza A virus (A/California/07/2009(H1N1))
Leucine aminopeptidase = biological target: T1, Leucine aminopeptidase (Plasmodium falciparum 3D7, UniProt Q8IL11); assay: P. falciparum M17LAP inhibitors, primary screen, biochemical, fluorogenic H-Leu-NHMec substrate, 1536-well (AID 1619); format: functional
T1 sequence (Q8IL11 whole entry): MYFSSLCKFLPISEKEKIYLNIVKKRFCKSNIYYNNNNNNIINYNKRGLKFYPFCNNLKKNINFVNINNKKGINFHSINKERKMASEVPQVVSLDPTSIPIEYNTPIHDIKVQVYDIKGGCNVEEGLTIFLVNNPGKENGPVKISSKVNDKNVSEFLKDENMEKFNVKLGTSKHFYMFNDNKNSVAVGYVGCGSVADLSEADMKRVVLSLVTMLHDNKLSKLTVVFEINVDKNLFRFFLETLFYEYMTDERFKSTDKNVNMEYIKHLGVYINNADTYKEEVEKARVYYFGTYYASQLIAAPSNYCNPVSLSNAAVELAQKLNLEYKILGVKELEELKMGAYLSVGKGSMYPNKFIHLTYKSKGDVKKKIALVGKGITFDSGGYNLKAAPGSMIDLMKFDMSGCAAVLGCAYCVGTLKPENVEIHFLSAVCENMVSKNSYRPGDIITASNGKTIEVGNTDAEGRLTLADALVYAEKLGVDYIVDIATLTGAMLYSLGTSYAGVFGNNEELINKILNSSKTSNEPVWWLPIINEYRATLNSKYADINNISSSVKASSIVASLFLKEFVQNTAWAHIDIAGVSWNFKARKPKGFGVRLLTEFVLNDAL

[1] = biological target: DNA dC->dU-editing enzyme APOBEC-3G (Homo sapiens, UniProt Q9HC16); format: functional;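 further: Dose-response counterscreen measuring inhibition of APOBEC3G DNA deaminase activity, run while confirming APOBEC3A inhibitors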
[2] = biological target: DNA dC->dU-editing enzyme APOBEC-3A (Homo sapiens, UniProt P31941); assay: Dose Response confirmation of small molecule APOBEC3A DNA Deaminase Inhibitors via a fluorescence-based single-stranded DNA deaminase assay. [Related pubchem assays (depositor defined):AID493011, AID493024]; format: functional
[3] = biological target: T2, Heat shock factor protein 1 (Mus musculus, UniProt P38532); assay: HSF1 potentiators in luciferase reporter cells, confirmation, cell-based, NIH3T3, luminescence, dose retest (AID 435004); format: functional;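 further: stress induced by proteasome inhibitor MG132 added 30 min after compound; luciferase reporter driven by HSF1 response element in NIH3T3 cells; actives raise luminescence as potentiators of the MG132 stress response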
T2 sequence (P38532 whole entry): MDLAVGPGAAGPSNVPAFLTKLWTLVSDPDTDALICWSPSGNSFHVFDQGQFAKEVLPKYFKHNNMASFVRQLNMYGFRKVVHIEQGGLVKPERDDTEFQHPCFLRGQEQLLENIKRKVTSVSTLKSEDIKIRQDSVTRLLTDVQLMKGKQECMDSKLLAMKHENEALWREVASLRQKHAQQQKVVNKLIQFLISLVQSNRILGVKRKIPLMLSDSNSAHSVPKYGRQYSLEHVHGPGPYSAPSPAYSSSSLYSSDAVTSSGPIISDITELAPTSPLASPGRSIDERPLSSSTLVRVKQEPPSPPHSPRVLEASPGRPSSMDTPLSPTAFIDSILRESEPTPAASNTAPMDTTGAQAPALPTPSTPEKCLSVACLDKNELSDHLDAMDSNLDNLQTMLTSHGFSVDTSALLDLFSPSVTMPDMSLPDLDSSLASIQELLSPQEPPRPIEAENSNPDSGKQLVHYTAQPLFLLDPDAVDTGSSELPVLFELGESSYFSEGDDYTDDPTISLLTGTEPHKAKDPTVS

[4] = microbe, parasite or virus in culture; format: functional; conditions: Mycobacterium tuberculosis
Prothrombin = Prothrombin (Homo sapiens, UniProt P00734); assay: Thrombin 1536 HTS Dose Response Confirmation. [Related pubchem assays: 1046 (Thrombin 1536 HTS; hits were confirmed in this assay)]; format: functional
[5] = biological target: T3, RNA-binding protein pos-1 (Caenorhabditis elegans, UniProt G5EF15); assay: inhibitors of POS-1/mex-3 RNA binding, dose response, biochemical, fluorescence polarization (AID 1964);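 further: purified POS-1 fused to maltose binding protein made in E. coli; potency of compounds blocking POS-1 binding to fluorescent RNA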
T3 sequence (G5EF15 whole entry): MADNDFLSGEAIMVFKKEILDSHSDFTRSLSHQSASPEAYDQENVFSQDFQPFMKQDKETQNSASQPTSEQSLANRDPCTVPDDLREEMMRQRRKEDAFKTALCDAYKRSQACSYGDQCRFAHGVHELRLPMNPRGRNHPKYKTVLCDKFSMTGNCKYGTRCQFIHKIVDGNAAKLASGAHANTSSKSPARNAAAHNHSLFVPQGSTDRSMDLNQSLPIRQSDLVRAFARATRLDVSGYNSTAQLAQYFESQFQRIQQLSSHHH

[6] = biological target: T4, Zinc finger protein mex-5 (Caenorhabditis elegans, UniProt Q9XUB2); assay: MEX-5/TCR-2 RNA interaction inhibitors, dose response, biochemical, C. elegans, fluorescence polarization (AID 1960)
T4 sequence (Q9XUB2 whole entry): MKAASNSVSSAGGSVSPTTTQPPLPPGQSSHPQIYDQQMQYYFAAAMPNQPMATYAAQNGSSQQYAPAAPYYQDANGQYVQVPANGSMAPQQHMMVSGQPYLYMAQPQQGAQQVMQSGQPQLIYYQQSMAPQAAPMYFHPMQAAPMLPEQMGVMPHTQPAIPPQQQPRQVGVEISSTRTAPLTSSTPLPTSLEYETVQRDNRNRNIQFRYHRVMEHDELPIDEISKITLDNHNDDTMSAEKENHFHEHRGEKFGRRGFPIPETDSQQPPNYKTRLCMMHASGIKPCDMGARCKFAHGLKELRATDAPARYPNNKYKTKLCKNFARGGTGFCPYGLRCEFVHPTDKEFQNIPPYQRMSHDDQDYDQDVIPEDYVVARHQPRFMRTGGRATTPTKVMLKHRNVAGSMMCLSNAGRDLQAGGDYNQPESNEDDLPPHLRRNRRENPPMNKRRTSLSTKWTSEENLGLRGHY

Protein skinhead-1 = biological target: T5, Protein skinhead-1 (Caenorhabditis elegans, UniProt P34707); format: functional
T5 sequence (P34707 whole entry): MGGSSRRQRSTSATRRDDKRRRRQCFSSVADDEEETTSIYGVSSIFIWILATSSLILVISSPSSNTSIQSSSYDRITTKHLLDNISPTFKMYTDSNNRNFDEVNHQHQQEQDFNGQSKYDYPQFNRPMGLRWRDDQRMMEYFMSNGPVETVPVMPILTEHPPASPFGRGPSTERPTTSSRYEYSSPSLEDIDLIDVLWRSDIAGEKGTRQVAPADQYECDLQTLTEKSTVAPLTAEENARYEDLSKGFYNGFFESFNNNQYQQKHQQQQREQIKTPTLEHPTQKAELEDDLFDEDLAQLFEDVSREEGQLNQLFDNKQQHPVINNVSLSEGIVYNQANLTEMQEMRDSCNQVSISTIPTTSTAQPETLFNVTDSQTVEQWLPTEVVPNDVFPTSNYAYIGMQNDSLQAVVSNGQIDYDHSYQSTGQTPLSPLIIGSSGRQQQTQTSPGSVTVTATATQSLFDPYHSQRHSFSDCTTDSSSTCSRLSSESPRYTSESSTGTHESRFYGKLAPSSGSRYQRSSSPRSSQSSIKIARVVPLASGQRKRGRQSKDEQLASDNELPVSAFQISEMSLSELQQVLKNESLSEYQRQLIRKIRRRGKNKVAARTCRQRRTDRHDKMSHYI

[7] = Shn3 3'UTR reporter inhibitors, dose response, cell-based, Clone20 osteoblasts, firefly luciferase, cherry-picked (AID 624132); format: functional;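 further: firefly luciferase luminescence from reporter carrying the Shn3 3'UTR in osteoblasts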
[8] = control 3'UTR Renilla luciferase suppression, dose response, counter-screen for Shn3 inhibitor project, cell-based, Clone20-Shn3RL, cherry-picked (AID 624133); format: functional
[9] = biological target: FAD-linked sulfhydryl oxidase ALR (Homo sapiens, UniProt P55789); assay: inhibitors of human ALR sulfhydryl oxidase, dose response, biochemical, H2O2 detection, luminescence, cherry-pick (AID 493248)
[10] = inhibitors of clade B AD8 Env fusion, dose response, cell-based, cherry-pick (AID 652062); format: functional;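 further: luciferase signal from cell-cell fusion driven by HIV-1 clade B AD8 Env; potency is for inhibitors of fusion seen as a drop in luminescence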
[11] = off-target signal loss in HeLa-CEM21 co-culture – HeLa F-luc CTL cells, cherry-picked, counter-screen for HIV-1 Env fusion inhibitor project, dose response (AID 652040); format: functional, cell-based;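 further: potency for signal decrease marking cytotoxic or nonspecific inhibition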
Large T antigen = Large T antigen (Simian virus 40, UniProt P03070); format: functional, Betapolyomavirus macacae;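 further: Confirmatory-stage PubChem screen for compounds that inhibit SV40 T antigen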
Sequence of Large T antigen (P03070 whole entry): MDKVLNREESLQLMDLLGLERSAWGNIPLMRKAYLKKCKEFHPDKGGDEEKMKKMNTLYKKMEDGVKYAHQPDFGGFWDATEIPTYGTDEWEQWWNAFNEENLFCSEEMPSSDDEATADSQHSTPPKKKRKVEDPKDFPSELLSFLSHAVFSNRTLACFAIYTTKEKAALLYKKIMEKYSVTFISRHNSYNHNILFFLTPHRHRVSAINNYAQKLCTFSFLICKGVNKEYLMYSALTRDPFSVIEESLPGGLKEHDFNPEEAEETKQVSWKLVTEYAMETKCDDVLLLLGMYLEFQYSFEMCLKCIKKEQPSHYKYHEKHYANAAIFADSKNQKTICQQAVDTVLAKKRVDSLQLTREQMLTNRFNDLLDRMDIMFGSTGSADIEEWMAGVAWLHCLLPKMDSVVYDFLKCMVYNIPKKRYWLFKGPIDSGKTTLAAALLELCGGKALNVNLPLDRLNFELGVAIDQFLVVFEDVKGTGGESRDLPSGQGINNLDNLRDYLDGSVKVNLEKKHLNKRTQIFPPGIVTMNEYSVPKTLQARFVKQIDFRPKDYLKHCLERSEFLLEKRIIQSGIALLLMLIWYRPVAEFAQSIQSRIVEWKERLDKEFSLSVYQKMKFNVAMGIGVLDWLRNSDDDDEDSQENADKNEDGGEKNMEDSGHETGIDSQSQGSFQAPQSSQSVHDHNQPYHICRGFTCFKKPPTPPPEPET

Sequence of DNA dC->dU-editing enzyme APOBEC-3G (Q9HC16 whole entry): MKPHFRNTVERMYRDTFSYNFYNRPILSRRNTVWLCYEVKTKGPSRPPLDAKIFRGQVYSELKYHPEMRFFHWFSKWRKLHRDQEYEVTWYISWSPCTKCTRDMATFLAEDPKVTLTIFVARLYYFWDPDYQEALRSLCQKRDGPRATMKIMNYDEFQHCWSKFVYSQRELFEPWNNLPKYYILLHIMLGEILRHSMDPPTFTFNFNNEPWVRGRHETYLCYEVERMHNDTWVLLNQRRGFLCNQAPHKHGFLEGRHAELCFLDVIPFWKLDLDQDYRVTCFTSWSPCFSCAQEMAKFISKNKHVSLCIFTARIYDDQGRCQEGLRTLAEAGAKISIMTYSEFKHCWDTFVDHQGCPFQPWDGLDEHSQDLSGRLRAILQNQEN
Sequence of DNA dC->dU-editing enzyme APOBEC-3A (P31941 whole entry): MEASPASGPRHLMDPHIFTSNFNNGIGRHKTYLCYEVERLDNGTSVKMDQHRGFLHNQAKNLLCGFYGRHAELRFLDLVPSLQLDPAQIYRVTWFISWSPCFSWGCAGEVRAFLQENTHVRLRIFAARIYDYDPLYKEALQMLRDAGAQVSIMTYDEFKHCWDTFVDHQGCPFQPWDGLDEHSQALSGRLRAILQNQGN
Sequence of Nonstructural protein 1 (Q194T2 whole entry): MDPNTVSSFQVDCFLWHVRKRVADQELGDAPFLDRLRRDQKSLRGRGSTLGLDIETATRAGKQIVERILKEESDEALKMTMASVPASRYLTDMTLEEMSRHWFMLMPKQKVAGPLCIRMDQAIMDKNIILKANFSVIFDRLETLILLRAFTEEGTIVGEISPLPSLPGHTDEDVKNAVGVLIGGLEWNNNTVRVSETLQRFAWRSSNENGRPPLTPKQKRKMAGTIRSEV
Sequence of FAD-linked sulfhydryl oxidase ALR (P55789 whole entry, the tested form may be a part): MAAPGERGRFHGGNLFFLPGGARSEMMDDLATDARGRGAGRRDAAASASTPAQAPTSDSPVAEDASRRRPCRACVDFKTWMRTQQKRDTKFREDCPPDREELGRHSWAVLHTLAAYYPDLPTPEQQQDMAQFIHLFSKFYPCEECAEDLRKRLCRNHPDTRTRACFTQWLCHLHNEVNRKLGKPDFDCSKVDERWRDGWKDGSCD

Structure (SMILES): COc1ccc(N2CCN(C(CNS(=O)(=O)c3ccc(C)cc3)c3ccccc3)CC2)cc1 (centres undefined)
- IC50 (Nonstructural protein 1): > 100 µM (active)

Structure (SMILES): O=C(CSc1nc(O)cc(-c2ccccc2)n1)Nc1ccccn1
- IC50 (Leucine aminopeptidase): 8.69 µM (active)

Structure (SMILES): C[n+]1cccc(C(=O)NCC2CCCO2)c1 (centres undefined)
- IC50 [1]: 4.44 µM (active)
- IC50 [2]: 2.55 µM (active)

Structure (SMILES): O=C(CSC1=NCCS1)NC1CCCCC1
- IC50 [1]: 3.76 µM (active)
- IC50 [2]: 3.67 µM (active)

Structure (SMILES): COc1ccc2cc(/C=C/C(=O)N3CCN(CC(=O)N4CCCCCC4)CC3)ccc2c1
- EC50 [3]: > 260 µM (inactive)

Structure (SMILES): O=C(CCn1c(=O)c2cccn2c2cccnc21)N1CCN(c2cccc(Cl)c2)CC1
- CC50 [4]: > 40 µM (active)

Structure (SMILES): CC(C)(C)c1ccc(NC(=O)C2=CN3CCS(=O)(=O)N=C3C=C2)cc1
- IC50 [1]: 8.51 µM (active)
- IC50 [2]: 5.24 µM (active)

Structure (SMILES): CC(=O)OCC1(C)CN(c2ccccc2)N(C(=O)c2ccc(C(C)(C)C)cc2)C1=O (centres undefined)
- IC50 (Prothrombin): 18 µM (active)

Structure (SMILES): COc1ccc(NC(=O)C(=O)N2N=C3CCCCC3C2(O)C(F)(F)F)cc1 (centres undefined)
- IC50 [1]: 6.97 µM (active)
- IC50 [2]: 6.08 µM (active)

Structure (SMILES): Cc1ccc(S(=O)(=O)N2CC(O)C[C@H]2C(=O)OCC(=O)Nc2ccc(N3CCCCC3)cc2)cc1C (some centres undefined)
- IC50 (Nonstructural protein 1): 62.8 µM (active)

Structure (SMILES): COc1cc(S(=O)(=O)N2CCOCC2)ccc1NC(=O)COC(=O)c1ccccn1
- IC50 (Prothrombin): 0.545 µM (active)

Structure (SMILES): COCc1cc(C)nc(N2CCN(Cc3ccccc3)CC2)c1C#N
- IC50 [1]: 3.55 µM (active)
- IC50 [2]: 3.15 µM (active)

Structure (SMILES): COc1ccc(-c2c(C)nn3c(NC4CCCC4)cc(C)nc23)cc1OC
- EC50 [3]: > 260 µM (inactive)

Structure (SMILES): Cn1c(Cc2ccccc2)nnc1SCCC(=O)Nc1ccccc1
- IC50 [1]: 4.55 µM (active)
- IC50 [2]: 2.03 µM (active)

Structure (SMILES): N=c1c(C(=O)NC2CCCCC2)cc2c(=O)n3ccccc3nc2n1Cc1ccc(F)cc1
- EC50 [5]: > 300 µM (not active)
- EC50 [6]: 13.3 µM (active)
- CC50 [4]: > 40 µM (active)

Structure (SMILES): O=C1N(c2ccccc2)CCN1c1ccccc1
- EC50 [3]: > 260 µM (inconclusive)

Structure (SMILES): CCOC(=O)CSC1=N/C(=C/c2ccc(-n3cncn3)cc2)C(=O)N1C(C)=O
- IC50 (Prothrombin): 0.942 µM (active)

Structure (SMILES): CC1(c2ccccc2)CC2CC(c3ccccc3)N1O2 (centres undefined)
- EC50 [3]: > 260 µM (inactive)

Structure (SMILES): Brc1ccc(Oc2nnnn2-c2ccccc2)cc1
- IC50 (Protein skinhead-1): 35.1 µM (active)

Structure (SMILES): Cc1cc(NC(=O)Cc2ccsc2)ccc1Br
- IC50 (Protein skinhead-1): > 100 µM (inactive)

Structure (SMILES): COC(c1ccccc1)c1nnc(CCC(=O)N(C)Cc2cccc(-n3cccn3)c2)o1 (centres undefined)
- IC50 (Prothrombin): > 50 µM (not active)

Structure (SMILES): O=C(C1CCCCC1)N1CCN(S(=O)(=O)c2ccc(Cl)cc2)CC1
- IC50 (Protein skinhead-1): > 100 µM (inactive)

Structure (SMILES): O=C(O)CSCC(=O)NCc1cccc(C(F)(F)F)c1
- IC50 (Prothrombin): > 50 µM (not active)

Structure (SMILES): Cc1ccc(-c2nn(-c3cc(Cl)ccc3[N+](=O)[O-])c(=O)c3ccccc23)cc1
- EC50 [3]: > 260 µM (inactive)

Structure (SMILES): CC(C)(C)[C@@H]1COC(=O)[C@@H](NC(=O)OCC2c3ccccc3-c3ccccc32)C/C=C\C[C@@H](CC(=O)NCCO)C(=O)N1
- AC50 [7]: 22.1 µM (active)
- AC50 [8]: 26.3 µM (active)

Structure (SMILES): Cc1c(NC(=O)c2cc(-n3cnnc3)ccc2Cl)cccc1-c1nc2ccccc2o1
- IC50 [1]: 2.65 µM (active)
- IC50 [2]: 2.56 µM (active)

Structure (SMILES): Cc1nc2cc(N)ccc2n1C1CCCCC1
- AC50 [9]: 0.277 µM (active)
- EC50 [5]: > 300 µM (not active)
- EC50 [6]: 4.72 µM (inconclusive)

Structure (SMILES): O=C1CN(CC(=O)N2CCCCC2)c2ccccc2O1
- CC50 [4]: 38.6 µM (active)

Structure (SMILES): Cn1cccc1C(=O)OCC(=O)NCCc1ccc(S(N)(=O)=O)cc1
- AC50 [10]: 7.13 µM (active)
- AC50 [11]: > 70 µM (inactive)

Structure (SMILES): CO[C@H]1CN(C)C(=O)c2cc(NC(=O)C3CCOCC3)ccc2OC[C@H](C)N(Cc2nccs2)C[C@H]1C
- AC50 [10]: 24.9 µM (active)
- AC50 [11]: 43.3 µM (active)

Structure (SMILES): O=C(CC(=O)N/N=C/c1ccc(O)cc1)N/N=C/c1ccc(O)cc1
- IC50 (Large T antigen): 13.8 µM (active)
- AC50 [9]: 1.15 µM (active)

Structure (SMILES): Cn1cc(/C=N/NC(=O)c2cc3cc(Br)ccc3o2)c2ccccc21
- IC50 [1]: 39.3 µM (active)
- IC50 [2]: 3.98 µM (active)

Structure (SMILES): CCOC(=O)CNC(=O)C1(NC(=O)CNC(=O)OCc2ccccc2)CCCC1 (Cbz-Gly-[Ac5c]-Gly-OEt)
- AC50 [8]: 49.2 µM (active)
